One compound from article PMC6934184, “Selective DNA-PKcs inhibition extends the therapeutic index of localized radiotherapy and chemotherapy” (The Journal of Clinical Investigation, 2019) can be followed below.

This test deals with T1, DDR2 N456S (Homo sapiens, UniProt Q16832, N456S).
T1 construct: purchased Thermo Fisher Scientific (Life Technologies) SelectScreen
The experiment in a line: SelectScreen LanthaScreen. Type of test: binding. The settings on record: read-out: % displacement. The method, boiled down: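 SelectScreen broad panel; activity (Z'LYTE, Adapta) plus binding formats. ATP: Km app for CSF1R Z'LYTE; 10 for CAMK1 Adapta. Readout = % per kinase.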

T1 sequence (Q16832 22-855 N456S): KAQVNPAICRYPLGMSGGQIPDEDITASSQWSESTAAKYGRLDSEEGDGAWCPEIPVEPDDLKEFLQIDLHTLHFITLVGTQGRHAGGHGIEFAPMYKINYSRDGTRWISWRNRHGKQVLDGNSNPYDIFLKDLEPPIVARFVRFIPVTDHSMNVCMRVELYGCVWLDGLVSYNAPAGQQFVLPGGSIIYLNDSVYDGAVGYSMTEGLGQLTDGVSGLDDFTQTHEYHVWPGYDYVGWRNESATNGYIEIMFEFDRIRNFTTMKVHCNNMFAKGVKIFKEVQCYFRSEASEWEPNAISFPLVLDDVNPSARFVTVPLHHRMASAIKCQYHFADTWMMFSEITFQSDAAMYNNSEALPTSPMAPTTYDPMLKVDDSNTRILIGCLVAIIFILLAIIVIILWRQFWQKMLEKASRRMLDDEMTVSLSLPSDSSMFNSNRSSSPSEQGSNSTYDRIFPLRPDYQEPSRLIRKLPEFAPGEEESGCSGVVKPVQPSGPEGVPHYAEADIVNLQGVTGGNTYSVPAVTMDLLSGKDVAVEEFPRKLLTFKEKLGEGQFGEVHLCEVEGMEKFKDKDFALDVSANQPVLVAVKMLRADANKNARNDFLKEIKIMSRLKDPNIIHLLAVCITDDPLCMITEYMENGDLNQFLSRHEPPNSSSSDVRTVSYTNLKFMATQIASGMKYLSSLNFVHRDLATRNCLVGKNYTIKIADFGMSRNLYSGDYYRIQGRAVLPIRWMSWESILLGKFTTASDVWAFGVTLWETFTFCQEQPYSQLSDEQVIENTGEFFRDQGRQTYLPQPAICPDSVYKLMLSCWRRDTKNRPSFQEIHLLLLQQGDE

Turning to `CN(C(=O)CN1CCOCC1)c1ccc2sc3c(-c4cccc5c(=O)cc(N6CC7CCC(C6)O7)oc45)cccc3c2c1` [NU5455], the inhibition at 1 µM came out at 0.5%.
